Data from patent US9382294B2, “Broad spectrum antibiotic compounds and use thereof” (Los Alamos National Security, LLC, priority 2013, dated 2016).
Converted amounts (≈) assume the structure as drawn. Counter-ions that a name gives are not always drawn. Like-named read-outs stand apart in the source and are kept apart here.

Experiments:
[1] = tested on: A. baumannii ATCC 19606; test: MIC of more highly purified compounds (Table 3); type: cell-based
Text: (§1) MIC was further evaluated using EtOAc extracts of more highly purified Compound #1 and Compound #2. MIC of these compounds was compared to ACHN-490 (Plazomicin; an aminoglycoside effective primarily against Gram-negative bacteria), Colistin (a polymyxin antibiotic effective against most Gram-negative bacilli), and Meropenem (an ultra broad-spectrum, beta-lactam antibiotic).

[2] = radio-HPLC of C. thermocellum culture fed 14C-labelled amino acids (water solubility of metabolite); type: physicochemical; details: no new peak in radio-HPLC of culture
Procedure: C. thermocellum was grown anaerobically in cellulose-containing medium. ^14C-labelled amino acids (^14C-L-Asp, ^14C-L-Leu and ^14C-L-Ile) were added to the culture media and radio-HPLC was performed. […] The orange suspension was centrifuged, the liquid layer separated from the cells and the DMSO was removed under reduced pressure. The final yield from this process was 14.7 mg.

[3] = tested on: HeLa cells; test: in vitro cell toxicology assay; type: cell-based, human
Procedure: (§2) In vitro cell toxicology assays were performed to evaluate the effect of Compound #1 on human cells. Compound #1, dissolved in DMSO, was added to vital cultures of HeLa cells and peripheral blood mononuclear cells (PMBC) one day after the cell cultures were started. For each cell line, pure DMSO (control #1), no DMSO (control #2) and Compound #1 in one times (T1-5 nM), five times (T5-25 nM) and ten times (T10-50 nM) of the bacteria-toxic concentration was added to the cell cultures for two sets each. All ten culture flasks per cell line (2×: T1, T5, T10, […]#2) were incubated under identical conditions and simple cell counts were performed on days two, four and six while replacing the cell culture medium to maintain the concentration of Compound #1.

[4] = tested on: peripheral blood mononuclear cells (PMBC); test: in vitro cell toxicology assay; type: cell-based, human; details: 5, 25, 50 nM
Procedure: as §2

[5] = Maximum Tolerated Dose (MTD) study; type: in vivo; details: CD-1 mice; subcutaneous 20, 40 or 80 mg/kg; observed 1 hour, 24 hours and 48 hours
Procedure: MTD studies were performed for Compound #1, Compound #2 and Compound #3. CD-1 mice, 6-8 weeks of age, were used for these studies. Groups of three mice were injected subcutaneously with 20 mg/kg, 40 mg/kg or 80 mg/kg of Compound #1, Compound #2 or Compound #3 Animals were observed 1 hour, 24 hours and 48 hours after administration of compound.

[6] = tested on: Acinetobacter baumannii (ATCC 17904); test: bacterial growth inhibition assay (cellulose disks); type: cell-based; details: 0.85 μg on 6 mm cellulose disk
Procedure: (§3) To evaluate the antibiotic properties of the compounds produced by the NRPS cluster, Compound #1 or Compound #2 (0.85 μg) was diluted in 2 μl DMSO and soaked onto 6 mm cellulose disks for a bacterial growth inhibition assay.

[7] = tested on: Bacillus subtilis PY79; test: as above; type: cell-based; details: 0.85 μg on 6 mm cellulose disk
Procedure: as §3

[8] = tested on: E. coli (ATCC 25922); test: as above; type: cell-based; details: 0.85 μg on 6 mm cellulose disk
Procedure: as §3

[9] = tested on: E. coli K-12; test: as above; type: cell-based; details: 0.85 μg on 6 mm cellulose disk
Procedure: as §3

[10] = tested on: Listeria grayi (ATCC 19120); test: as above; type: cell-based; details: 0.85 μg on 6 mm cellulose disk
Procedure: as §3

[11] = tested on: Pseudomonas putida (ATCC 11172); test: as above; type: cell-based; details: 0.85 μg on 6 mm cellulose disk
Procedure: as §3

[12] = tested on: Staphylococcus aureus (ATCC 2913); test: as above; type: cell-based; details: 0.85 μg on 6 mm cellulose disk
Procedure: as §3

[13] = tested on: P. aeruginosa ATCC 27853; test: MIC broth dilution assay (Table 2); type: cell-based; details: Pseudomonas aeruginosa, ATCC27853, CAMHB, 16-20 h, 35° C., read-out: Minimum inhibitory concentration (MIC)
Procedure: (§4) Stocks of test compounds and standards were diluted 1:100 to provide working stocks in each growth medium. For P. aeruginosa, S. enterica and S. aureus, eleven serial, one-half dilutions of the compounds and standards were prepared in 96-well polypropylene dilution blocks in cation-adjusted Mueller Hinton broth (CAMHB). The dilutions were transferred to 96-well assay plates. […] Bacterial suspensions were prepared and added to each well at a concentration of approximately 5×10^5 colony-forming-units per milliliter. The inoculated plates were incubated for 16-20 hours at 35±1° C. At the completion of incubation the wells of each plate were evaluated visually for the presence of bacterial growth. The MIC was the concentration at which there was no growth.

[14] = tested on: S. enterica ATCC 14028; test: MIC broth dilution assay (Table 2); type: cell-based; details: Salmonella enterica, ATCC14028, CAMHB, 16-20 h, 35° C., read-out: Minimum inhibitory concentration (MIC)
Procedure: as §4

[15] = tested on: S. pneumoniae ATCC 49619; test: MIC broth dilution assay (Table 2); type: cell-based; details: Streptococcus pneumoniae, ATCC49619, CAMHB + LHB, 20-24 h, read-out: Minimum inhibitory concentration (MIC)
Procedure: as §4, with “per milliliter. […] At the” for “per milliliter. The inoculated plates were incubated for 16-20 hours at 35±1° C. At the”, “no growth. MICs against H. influenzae, S. pneumoniae and C. difficile were determined similarly, but dilutions were prepared directly in the 96-well assay plates and MIC parameters were as indicated below (Table 1). [table]” for “no growth.”

[16] = tested on: H. influenzae ATCC 49247; test: MIC broth dilution assay (Table 2); type: cell-based; details: ATCC49247, Haemophilus Test Medium Broth, 20-24 h, read-out: Minimum inhibitory concentration (MIC)
Procedure: as §4, with “The inoculated plates were incubated for 16-20 hours at 35±1° C.” left out

[17] = tested on: C. difficile ATCC 700057; test: MIC broth dilution assay (Table 2); type: cell-based, Clostridium difficile; details: Clostridioides difficile
Procedure: as §4, with “per milliliter. […] At the” for “per milliliter. The inoculated plates were incubated for 16-20 hours at 35±1° C. At the”, “no growth. MICs against H. influenzae, S. pneumoniae and C. difficile were determined similarly, but dilutions were prepared directly in the 96-well assay plates and MIC parameters were as indicated below (Table 1). [table]” for “no growth.”

[18] = tested on: C. difficile ATCC 70057; test: MIC of more highly purified compounds (Table 3); type: cell-based; details: Clostridioides difficile, ATCC70057, EtOAc extracts of more highly purified compounds
Text: as §1

[19] = tested on: H. influenzae ATCC 49247; test: MIC of more highly purified compounds (Table 3); type: cell-based; details: Haemophilus influenzae, ATCC49247, EtOAc extracts of more highly purified compounds
Text: as §1

[20] = tested on: K. pneumoniae ATCC 43816; test: MIC of more highly purified compounds (Table 3); type: cell-based
Text: as §1

[21] = tested on: S. aureus (MRSA) ATCC 33591; test: MIC of more highly purified compounds (Table 3); type: cell-based; details: EtOAc extracts of more highly purified compounds
Text: as §1

[22] = tested on: S. enterica ATCC 14028; test: MIC of more highly purified compounds (Table 3); type: cell-based
Text: as §1

[23] = tested on: S. pneumoniae ATCC 49619; test: MIC of more highly purified compounds (Table 3); type: cell-based; details: Streptococcus pneumoniae, ATCC49619, EtOAc extracts of more highly purified compounds
Text: as §1

[24] = Acinetobacter baumannii, ATCC19606, EtOAc extracts of more highly purified compounds, read-out: MIC
[25] = Staphylococcus aureus, read-out: MIC
[26] = Salmonella enterica, ATCC14028, EtOAc extracts of more highly purified compounds, read-out: MIC
[27] = EtOAc extracts of more highly purified compounds

Molecule `CN[C@@H]1[C@@H](O)[C@@H](O[C@@H]2[C@@H](O)[C@H](O[C@H]3OC(CNCCO)=CC[C@H]3N)[C@@H](N)C[C@H]2NC(=O)[C@@H](O)CCN)OC[C@]1(C)O` [ACHN-490, Plazomicin] has an MIC [1, 24] of 8 µg/mL.

With `CCC(C)C1N[C@@H]2OC[C@H](OC(=O)C(CC=O)NC1=O)[C@H](O[C@@H]1OC[C@@H](O)[C@H](O)[C@@H]1O)[C@@H]2O` (stereo partly shown) [Compound #1] the water solubility [2] was “water insoluble”, the “changes in physical appearance of cell line” value ([3]; 5, 25, 50 nM) was “no changes in physical appearance” and the pyrogenic reactions ([3]; 5, 25, 50 nM) was “No pyrogenic reactions”. The “variation of death rates, treated vs untreated cell cultures” value ([3]; 5, 25, 50 nM, cell counts on days two, four and six) was “less than 5%”, the proliferation rate ([3]; T10 (50 nM)) was “slightly reduced” and the “changes in physical appearance of cell line” value [4] was “no changes in physical appearance”. For the same molecule, the pyrogenic reactions [4] was “No pyrogenic reactions”, the “variation of death rates, treated vs untreated cell cultures” value ([4]; cell counts on days two, four and six) was “less than 5%” and the “signs of illness (MTD study)” value [5] was “No signs of illness”. For the same molecule, the bacterial growth inhibition [6] was “significantly inhibited bacterial growth”, the bacterial growth inhibition [7] was “significantly inhibited bacterial growth” and the bacterial growth inhibition [8] was “significantly inhibited bacterial growth”. The bacterial growth inhibition [9] was “significantly inhibited bacterial growth”, the bacterial growth inhibition [10] was “significantly inhibited bacterial growth” and the bacterial growth inhibition [11] was “significantly inhibited bacterial growth”. For the same molecule, the bacterial growth inhibition [12] was “significantly inhibited bacterial growth”, the MIC [13] was > 128 µg/mL and the MIC [14] was > 128 µg/mL. The MIC [15] was 64 µg/mL, the MIC [16] was 2 µg/mL (≈ 4.2 µM) and the MIC ([17]; ATCC700057, C. difficile ATCC 700057, Supplemented Brucella Broth + LHB, anaerobic, 46-48 h, read-out: Minimum inhibitory concentration (MIC)) was 32 µg/mL. For the same molecule, the MIC [1, 24] was 8 µg/mL, the MIC [18] was 16 µg/mL and the MIC [19] was 0.5 µg/mL. It also gave an MIC ([20]; Klebsiella pneumoniae, ATCC43816, EtOAc extracts of more highly purified compounds, read-out: MIC) of 8 µg/mL, an MIC [21, 25] of 16 µg/mL and an MIC [22, 26] of 16 µg/mL. The MIC [23] was 16 µg/mL.

For `C[C@@H](O)[C@H]1C(=O)N2C(C(=O)O)=C(S[C@@H]3CN[C@H](C(=O)N(C)C)C3)[C@H](C)[C@H]12` [Meropenem], the MIC [1, 24] was 1 µg/mL, the MIC [21, 25] was > 16 µg/mL and the MIC [22, 26] was > 16 µg/mL.

`CN[C@H](CC(C)C)C(=O)N[C@H]1C(=O)N[C@@H](CC(N)=O)C(=O)N[C@H]2C(=O)N[C@H]3C(=O)N[C@H](C(=O)N[C@H](C(=O)O)c4cc(O)cc(O)c4-c4cc3ccc4O)[C@H](O)c3ccc(c(Cl)c3)Oc3cc2cc(c3O[C@@H]2O[C@H](CO)[C@@H](O)[C@H](O)[C@H]2O[C@H]2C[C@](C)(N)[C@H](O)[C@H](C)O2)Oc2ccc(cc2Cl)[C@H]1O` [VAN, vancomycin hydrochloride, reference compound] showed an MIC ([17]; ATCC700057, read-out: Minimum inhibitory concentration (MIC)) of 0.25 µg/mL.

With Colistin the MIC [1, 27] was >32 µg/mL, the MIC [20, 27] was 0.12 µg/mL and the MIC [21] was 32 µg/mL. The MIC [22, 27] was >32 µg/mL.
